Experimental data taken from ChEMBL document CHEMBL1201862, “PubChem BioAssay data set” (2004).
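Following 48 hours of exposure in 96-well plates, responses at five concentrations were used to interpolate endpoints linearly. GI50 = concentration required for 50% inhibition of growth.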 Activity calls are given as the source filed them. Cut-off read from the data, not from the text of the source: active = GI50 up to about 1.1 µM and inactive = higher.

Key:
Test in all cases: inhibition of tumour cell growth, NCI panel, 48 h
786-0 = system: 786-0
A549 = system: A549
BT-549 = system: BT-549
CAKI-1 = system: CAKI-1
CCRF-CEM = system: CCRF-CEM
COLO 205 = system: COLO 205
DU-145 = system: DU-145
EKVX = system: EKVX
HCC 2998 = system: HCC 2998
HCT-15 = system: HCT-15
HL-60 = system: HL-60
HOP-62 = system: HOP-62
HOP-92 = system: HOP-92
HT-29 = system: HT-29
Hs-578T = system: Hs-578T
IGROV-1 = system: IGROV-1
K562 = system: K562
KM12 = system: KM12
LOX IMVI = system: LOX IMVI
M14 = system: M14
MCF7 = system: MCF7
MDA-MB-231 = system: MDA-MB-231
MDA-N = system: MDA-N
MOLT-4 = system: MOLT-4
Malme-3M = system: Malme-3M
NCI-H23 = system: NCI-H23
NCI-H460 = system: NCI-H460
NCI/ADR-RES = system: NCI/ADR-RES
OVCAR-4 = system: OVCAR-4
OVCAR-8 = system: OVCAR-8
RPMI-8226 = system: RPMI-8226
SF-268 = system: SF-268
SF-539 = system: SF-539
SK-MEL-28 = system: SK-MEL-28
SK-MEL-5 = system: SK-MEL-5
SK-OV-3 = system: SK-OV-3
SN12C = system: SN12C
SNB-75 = system: SNB-75
SR = system: SR
SW-620 = system: SW-620
T47D = system: T47D
TK-10 = system: TK-10
U-251 = system: U-251
UACC-257 = system: UACC-257
UACC-62 = system: UACC-62
A498 = system: A498
ACHN = system: ACHN
HCT-116 = system: HCT-116
MDA-MB-435 = system: MDA-MB-435
OVCAR-5 = system: OVCAR-5
SK-MEL-2 = system: SK-MEL-2
SNB-19 = system: SNB-19
UO-31 = system: UO-31

In the case of O=C(Cc1ccccc1)NNc1nc(NNC(=O)c2ccncc2)nc(Nc2cccc(Cl)c2)n1, the GI50 (786-0) is reported as > 10 µM (inactive), the GI50 (A549) is reported as > 10 µM (inactive) and the GI50 (BT-549) is reported as > 10 µM (inactive). The GI50 (CAKI-1) was > 10 µM (inactive), the GI50 (CCRF-CEM) was > 10 µM (inactive) and the GI50 (COLO 205) was > 10 µM (inactive). For the same molecule, the GI50 (DU-145) was > 10 µM (inactive), the GI50 (EKVX) was > 10 µM (inactive) and the GI50 (HCC 2998) was > 10 µM (inactive). The GI50 (HCT-15) was greater than 10 µM, the GI50 (HL-60) was > 10 µM (inactive) and the GI50 (HOP-62) was > 10 µM (inactive). The GI50 (HOP-92) was > 10 µM (inactive), the GI50 (HT-29) was > 10 µM (inactive) and the GI50 (Hs-578T) was > 10 µM (inactive). For the same molecule, the GI50 (IGROV-1) was > 10 µM (inactive), the GI50 (K562) was > 10 µM (inactive) and the GI50 (KM12) was > 10 µM (inactive). The GI50 (LOX IMVI) was > 10 µM (inactive), the GI50 (M14) was > 10 µM (inactive) and the GI50 (MCF7) was > 10 µM (inactive). The GI50 (MDA-MB-231) was > 10 µM (inactive), the GI50 (MDA-N) was > 10 µM (inactive) and the GI50 (MOLT-4) was > 10 µM (inactive). For the same molecule, the GI50 (Malme-3M) was > 10 µM (inactive), the GI50 (NCI-H23) was > 10 µM (inactive) and the GI50 (NCI-H460) was > 10 µM (inactive). For the same molecule, the GI50 (NCI/ADR-RES) was > 10 µM (inactive), the GI50 (OVCAR-4) was > 10 µM (inactive) and the GI50 (OVCAR-8) was > 10 µM (inactive). For the same molecule, the GI50 (RPMI-8226) was > 10 µM (inactive), the GI50 (SF-268) was > 10 µM (inactive) and the GI50 (SF-539) was > 10 µM (inactive). The GI50 (SK-MEL-28) was > 10 µM (inactive), the GI50 (SK-MEL-5) was > 10 µM (inactive) and the GI50 (SK-OV-3) was > 10 µM (inactive). The GI50 (SN12C) was > 10 µM (inactive), the GI50 (SNB-75) was > 10 µM (inactive) and the GI50 (SR) was > 10 µM (inactive). The GI50 (SW-620) was > 10 µM (inactive), the GI50 (T47D) was > 10 µM (inactive) and the GI50 (TK-10) was > 10 µM (inactive). The GI50 (U-251) was > 10 µM (inactive), the GI50 (UACC-257) was > 10 µM (inactive) and the GI50 (UACC-62) was > 10 µM (inactive).
For Oc1cc(/C=C/c2ccccc2)nc2cc3c(cc12)OCO3, the GI50 (786-0) was 3.32 µM (inactive), the GI50 (A498) was 4.2 µM (inactive) and the GI50 (A549) was 4.95 µM (inactive). For the same molecule, the GI50 (ACHN) was 10.9 µM (inactive), the GI50 (BT-549) was 5.73 µM (inactive) and the GI50 (COLO 205) was 2.38 µM (inactive). For the same molecule, the GI50 (DU-145) was 7.06 µM (inactive), the GI50 (EKVX) was 6.12 µM (inactive) and the GI50 (HCC 2998) was 2.9 µM (inactive). For the same molecule, the GI50 (HCT-116) was 3.19 µM (inactive), the GI50 (HCT-15) was 3.01 µM and the GI50 (HOP-62) was 3.47 µM (inactive). The GI50 (HOP-92) was 2.08 µM (inactive), the GI50 (HT-29) was 2.2 µM (inactive) and the GI50 (Hs-578T) was 3.78 µM (inactive). For the same molecule, the GI50 (IGROV-1) was 4.56 µM (inactive), the GI50 (KM12) was 3.99 µM (inactive) and the GI50 (M14) was 5.25 µM (inactive). For the same molecule, the GI50 (MCF7) was 4.85 µM (inactive), the GI50 (MDA-MB-231) was 2.79 µM (inactive) and the GI50 (MDA-MB-435) was 1.98 µM (inactive). For the same molecule, the GI50 (MDA-N) was 2.03 µM (inactive), the GI50 (MOLT-4) was 2.71 µM (inactive) and the GI50 (NCI-H23) was 3.26 µM (inactive). The GI50 (NCI-H460) was 3.1 µM (inactive), the GI50 (NCI/ADR-RES) was 2.04 µM (inactive) and the GI50 (OVCAR-4) was 14.7 µM (inactive). The GI50 (OVCAR-5) was 3.54 µM (inactive), the GI50 (OVCAR-8) was 5.53 µM (inactive) and the GI50 (RPMI-8226) was 0.724 µM (active). For the same molecule, the GI50 (SF-539) was 2.08 µM (inactive), the GI50 (SK-MEL-28) was 8.65 µM (inactive) and the GI50 (SK-MEL-2) was 3.72 µM (inactive). The GI50 (SK-OV-3) was 4.63 µM (inactive), the GI50 (SN12C) was 6.04 µM (inactive) and the GI50 (SNB-19) was 3.78 µM (inactive). For the same molecule, the GI50 (SNB-75) was 6.93 µM (inactive), the GI50 (SW-620) was 6.37 µM (inactive) and the GI50 (T47D) was 3.28 µM (inactive). For the same molecule, the GI50 (TK-10) was 10.7 µM (inactive), the GI50 (U-251) was 2.52 µM (inactive) and the GI50 (UACC-257) was 22.1 µM (inactive). For the same molecule, the GI50 (UACC-62) was 3.19 µM (inactive) and the GI50 (UO-31) was 6.01 µM (inactive).
